≈ marks a conversion by molar mass, not a printed value. Blank lines part the entries; values can stand above or below the molecule they belong to.
Experiments:
Assay type in all cases: cell-based
E. coli (ATCC #25922) [1] = test: Effect of antibiotics on E. coli, Ru(DPP)3Cl2 indicator tray (Example 8); settings: for susceptibility of E. coli by fluorescence counts: 4 hours; for Relative Fluorescence at 4 hrs.: 1×10^7 CFU/ml, 37° C.
Protocol: (§1) A 0.5 McFarland suspension of E. coli (ATCC #25922) in Broth A (see Example 1) was prepared using an A-Just nephelometer. […] The trays were incubated at 37° C. for 4 hours and their fluorescence measured in a Fluoroskan II fluorometer.
The fluorescent compound tris 4,7-diphenyl-1,10-phenanthroline ruthenium (II) chloride (Ru(DPP)3Cl2) was synthesized using the procedure of Watts and Crosby (J. Am.Chem. Soc. 93, 3184(1971)). A total of 3.6 mg of the compound was dissolved in 2.0 ml dimethyl sulfoxide (D-5879, Sigma Chemical, St. Louis, Mo.) and the resultant solution was then added slowly, with stirring, to 1300 ml silicone rubber forming solution (Water Based Emulsion #3-5024, Dow Corning, Midland, Mich.). A 35 microliter aliquot of the mixture was subsequently dispensed into each well of a 96 well, flat bottom, white microtiter tray (#011-010-7901, Dynatech, Chantilly, Va.), and the system was subsequently cured overnight in a low humidity (less than 25% RH), 60° C. incubator. After curing, the trays were washed by either soaking or by filling and emptying each well several times with each of the following reagents; a) absolute ethanol, b) 0.1 M phosphate buffer pH 7.2, c) hot distilled water (about 45° C.) and d) ambient temperature distilled water.

E. coli (ATCC #25922) [2] = test: Effect of antibiotics on oxygen consumption of E. coli, Ru(BiPy)3Cl2 indicator tray (Example 9); settings: for susceptibility of E. coli by fluorescence counts: 4 hours; for Relative Fluorescence at 4 hrs.: 1×10^7 CFU/ml, 37° C.
Protocol: A 96 well Microtiter tray was produced essentially as in Example 1, except that tris-(2,2′ bipyridyl)-ruthenium (II) chloride hexahydrate (Aldrich Chemical Company, Milwaukee, Wis.) [Ru(BiPy)3Cl2] was substituted for Ru(DPP)3Cl2 in the silicone mixture. A second tray containing 9,10-diphenyl anthracene (DPA) was also prepared. All wells were charged with 150 ul of 1×10^7 CFU/ml E. coli (ATCC #25922) in broth. Table 3 lists the results at 0, 1, 2, 3, and 4 hours after addition of organisms.
as §1

E. coli (ATCC #25922) [3] = test: Effect of antibiotics on oxygen consumption of E. coli, DPA indicator tray (Example 10); settings: for susceptibility of E. coli by fluorescence counts: 4 hours; for Relative Fluorescence at 4 hrs.: 1×10^7 CFU/ml, 37° C.
HL60 cells [4] = test: Cytotoxicity assay in oxygen sensor plates; settings: Homo sapiens, read-out: IC50 O2 Sensor
Protocol: Oxygen sensor plates were prepared by the general methods described herein. Falcon 1177 polystyrene 96 well U-bottom plates (BD Labware) were used for all experiments. The fluorescent dye Ru(DPP)3Cl2 was adsorbed to silica gel by rotary evaporation of ethanolic solutions of the dye with the silica gel. The adsorbed dye-silica and a moisture-cure clear silicone were mixed manually and immediately applied to plate wells with approximately 17 uL silicone per well. These were cured for 2-3 days in a controlled humidity incubator.
All data was obtained with a BMG Polarstar fluorimeter at 37° C. using the bottom plate reading configuration. The bandpass filters were 465 nm for excitation and 590 nm for emission. For the experiments with […]®, a Cytofluor 4000 fluorometer was used with a 485 nm excitation filter and a 580 nm emission filter. Data was read at selected time intervals. Normalized fluorescence data was generally obtained by dividing well values at selected time points by the same well's initial reading with only media or buffer present prior to adding cells.
Cells used for cytotoxicity and quantitation experiments (HL60, U937; ATCC) were grown in tissue culture media recommended by the supplier (RPMI; Gibco and ATCC, respectively). The media was supplemented with either 20% fetal bovine serum (Hyclone) for the HL60 cells or 10% FBS for the U937 cells, with the addition of penicillin, streptomycin and fungizone (Gibco) to prevent microbial contamination. Cells were maintained in a tissue culture incubator (37° C., 5% CO2, 95% humidity) during all experiments between readings.
HL60 cells (human promyelocytic leukemia cell line, ATCC #45500) were grown in tissue culture media recommended by the supplier (RPMI; Gibco), supplemented with 20% fetal bovine serum, heat inactivated at 50° C. for thirty minutes with the addition of penicillin, streptomycin and fungizone (Gibco) to prevent microbial contamination. Cells were maintained in tissue culture incubator (37° C., 5% CO2, 95% humidity) during all experiments. Fluorescence of the oxygen sensor was read on a Polarstar™ fluorometer (BMG), using 465 nm excitation and 590 nm emission filters.
100 uL of tissue culture media was aliquoted into the wells of the Oxygen sensor plate and plate was allowed to equilibrate in the tissue culture incubator for 1 hour prior to taking the initial reading. This reading was used to normalize all subsequent readings to account for well to well variability. Cells were resuspended in fresh media at 960,000 cells/mi. Serial 1:2 dilution of this stock was performed and 100 uL of each dilution was alliquoted across the length of the plate in replicates of 12 (rows B-H), with final cell/well number from 1,500 to 96,000. In row A, 100 uL of tissue culture media was alliquoted into the wells in lieu of cells (no-cells control). Fluorescence measurements were taken every 24 hours over 5 days. The actual number of cells present was counted with a hemocytometer by sampling the parallel well (same seeding cell number). Mean fluorescence from 5 wells per data point (n=5) was plotted against the counted cell number (FIG. 10). Error bars are standard deviation of the mean.
The experiment was performed as described in Example 18, with the following exceptions. Serial dilutions of vinblastine were prepared at twice the final concentration (100 nM to 0.1 nM) in tissue culture media.100 uL of the drug dilution in tissue culture media was aliquoted across the width of the plate in replicates of five, reserving one column for no-drug (media only) control. After an initial reading, a constant number of cells (200,000/well) in 100 uL media were added to each well of rows A-E of the oxygen sensor plate, reserving rows F-H for no-cells control. Fluorescence was read at the indicated times. Mean fluorescence from 5 wells per data point (n=5) was plotted against vinblastine concentration (FIG. 12).

HL60 cells [5] = test: Cytotoxicity assay by MTT; settings: Homo sapiens, read-out: IC50 MTT
Protocol: In parallel with the oxygen sensor assays, MTT assays were performed using a Cell Titer Kit™ (Promega), as in Example 20, with the following exceptions. For each time point (corresponding to oxygen sensor assay time point), one flat-bottom 96 well microtiter plate (Falcon) was used. 50 uL of drug dilution in tissue culture media was used for initial reading and cells were suspended in 50 uL media, to the final volume of 100 uL. At indicated time points, 10 uL of MTT reagent was added per well for 1 hour, after which 100 uL of the stop/lysis buffer was added. Plates were sealed with Parafilm™ and cell lysis occurred overnight. Absorbance (570 nm corrected by absorbance at 750 nm) was read using a Thermomax Microplate Reader (Molecular Devices). Mean absorbance from 5 wells per data point, with standard deviation as error bars, was plotted against vinblastine concentration (FIG. 13).
These experiments was performed as described in Example 20, with the exception that appropriate dilutions of the above reagents were substituted for vinblastine: 0.01 nM to 10000 nM methotrexate, 0.00001 to 10 mM sodium azide, and 2 to 2000 uM SDS respectively.

E. coli (ATCC #25922) [6] = test: Visual reading of indicator tray fluorescence without a fluorometer (Example 13); settings: E. coli #25922, 1×10^7 CFU/ml, 4 hours at 37° C., UV transilluminator
Protocol: (§2) The trays were incubated for 4 hours at 37° C. and subsequently placed on the stage of an ultraviolet transilluminator (#TX-365A, Spectronics Corp., Westbury, N.Y.) which served as an excitation source.

[7] = tested on: Ps. aeruginosa (BDMS Culture collection #N111); test: as above; settings: 1×10^7 CFU/ml, 4 hours at 37° C., UV transilluminator
Protocol: as §2

[8] = tested on: Ps. aeruginosa (BDMS Culture collection #N111); test: Overnight microdilution antimicrobial susceptibility test (reference MIC); settings: Pseudomonas aeruginosa
E. coli (ATCC #25922) [9] = test: as above; settings: Escherichia coli, ATCC25922; E. coli #25922, overnight microdilution
[10] = all concentrations (0.5 to 8 ug/ml)

Structure (SMILES): O=C(O)c1cn(C2CC2)c2cc(N3CCNCC3)c(F)cc2c1=O [Ciprofloxacin, ciprofloxacin]
- susceptibility of E. coli by fluorescence counts (E. coli (ATCC #25922) [1]; [10]): sensitive
- susceptibility of E. coli by fluorescence counts (E. coli (ATCC #25922) [2]; [10]): sensitive
- susceptibility of E. coli by fluorescence counts (E. coli (ATCC #25922) [3]; [10]): sensitive

Structure (SMILES): CCCCCCCCCCCCOS(=O)(=O)[O-].[Na+] [SDS, Sodium Dodecyl Sulfate]
- IC50 (HL60 cells [4]; HL-60, HL60 cells, 24 hours): 340 µM
- IC50 (HL60 cells [4]; HL-60, HL60 cells, 48 hours): 300 µM
- IC50 (HL60 cells [4]; HL-60, HL60 cells, 72 hours): 300 µM
- IC50 (HL60 cells [5]; HL-60, HL60 cells, 24 hours): 500 µM
- IC50 (HL60 cells [5]; HL-60, HL60 cells, 48 hours): 440 µM
- IC50 (HL60 cells [5]; HL-60, HL60 cells, 72 hours): 430 µM

Structure (SMILES): [N-]=[N+]=[N-] [Sodium Azide, sodium azide]
- IC50 (HL60 cells [4]; HL-60, 48 h): 13 µM
- IC50 (HL60 cells [4]; HL-60, 72 h): 13 µM
- IC50 (HL60 cells [4]; HL-60, 96 h): 9 µM
- IC50 (HL60 cells [4]; HL-60, 120 h): 5.8 µM
- IC50 (HL60 cells [5]; HL-60, 48 h): 25 µM
- IC50 (HL60 cells [5]; HL-60, 72 h): 25 µM
- IC50 (HL60 cells [5]; HL-60, 96 h): 3 µM
- IC50 (HL60 cells [5]; HL-60, 120 h): 1.6 µM

- MIC Visual (lowest concentration of antibiotic to significantly lower the fluorescent emissions) (E. coli (ATCC #25922) [6]): 8 µg/mL
- MIC Visual (lowest concentration of antibiotic to significantly lower the fluorescent emissions) [7]: >64 µg/mL
- MIC [8]: > 64 µg/mL
- MIC (E. coli (ATCC #25922) [9]): 4 µg/mL (≈ 9.36 µM)
Structure (SMILES): CO[C@@]1(NC(=O)Cc2cccs2)C(=O)N2C(C(=O)O)=C(COC(N)=O)CS[C@@H]21 [Cefoxitin, cefoxitin]
- susceptibility of E. coli by fluorescence counts (E. coli (ATCC #25922) [1]; 0.5, 1, and 2 ug/ml): resistant
- susceptibility of E. coli by fluorescence counts (E. coli (ATCC #25922) [1]; 4 and 8 ug/ml): sensitive
- Relative Fluorescence at 4 hrs. (E. coli (ATCC #25922) [1]; antibiotic 0.5 ug/mL): 8181
- Relative Fluorescence at 4 hrs. (E. coli (ATCC #25922) [1]; antibiotic 1 ug/mL): 8270
- Relative Fluorescence at 4 hrs. (E. coli (ATCC #25922) [1]; antibiotic 2 ug/mL): 7120
- Relative Fluorescence at 4 hrs. (E. coli (ATCC #25922) [1]; antibiotic 4 ug/mL): 3692
- Relative Fluorescence at 4 hrs. (E. coli (ATCC #25922) [1]; antibiotic 8 ug/mL): 2974
- susceptibility of E. coli by fluorescence counts (E. coli (ATCC #25922) [2]; 0.5, 1, and 2 ug/ml): resistant
- susceptibility of E. coli by fluorescence counts (E. coli (ATCC #25922) [2]; 4 and 8 ug/ml): sensitive
- Relative Fluorescence at 4 hrs. (E. coli (ATCC #25922) [2]; antibiotic 0.5 ug/mL): 1171
- Relative Fluorescence at 4 hrs. (E. coli (ATCC #25922) [2]; antibiotic 1 ug/mL): 1491
- Relative Fluorescence at 4 hrs. (E. coli (ATCC #25922) [2]; antibiotic 2 ug/mL): 1338
- Relative Fluorescence at 4 hrs. (E. coli (ATCC #25922) [2]; antibiotic 4 ug/mL): 832
- Relative Fluorescence at 4 hrs. (E. coli (ATCC #25922) [2]; antibiotic 8 ug/mL): 559
- susceptibility of E. coli by fluorescence counts (E. coli (ATCC #25922) [3]; 0.5, 1, 2 ug/ml): resistant
- susceptibility of E. coli by fluorescence counts (E. coli (ATCC #25922) [3]; 4 and 8 ug/ml): sensitive
- Relative Fluorescence at 4 hrs. (E. coli (ATCC #25922) [3]; antibiotic 0.5 ug/mL): 192
- Relative Fluorescence at 4 hrs. (E. coli (ATCC #25922) [3]; antibiotic 1 ug/mL): 173
- Relative Fluorescence at 4 hrs. (E. coli (ATCC #25922) [3]; antibiotic 2 ug/mL): 164
- Relative Fluorescence at 4 hrs. (E. coli (ATCC #25922) [3]; antibiotic 4 ug/mL): 101
- Relative Fluorescence at 4 hrs. (E. coli (ATCC #25922) [3]; antibiotic 8 ug/mL): 95

Reference: patent US7338778B2, “Luminescent method for determining cell oxygen consumption” (Becton, Dickinson and Company, priority 1991, dated 2008)
